Results on 5 compounds are retold here after patent publication US20230357249A1, “ANDROGEN RECEPTOR PROTEIN DEGRADERS WITH A TRICYCLIC CEREBLON LIGAND” (THE REGENTS OF THE UNIVERSITY OF MICHIGAN, priority 2020, published 2023).

Structures are written as SMILES.

Assay [1] deals with AR protein. Briefly: AR protein degradation in MDA-MB-453 cells, Western blotting. It is filed as cell-based. More on the design: key to AR protein degradation MDA-MB-453 10 nM: A: >90% degradation (24 hr treatment); B: >50% degradation but <90% (24 hr treatment); C: >10% degradation but <50% (24 hr treatment); D: No significant degradation (24 hr treatment). Conditions: 24 hr treatment. On the procedure:
(§1) The appropriate cell line, e.g., prostate cancer LNCaP, Vcap, or 22RV1 cell line, was treated with Compounds of the Disclosure as indicated. The treated cells were lysed with RIPA buffer. The AR level in the cell lysates was examined by western blotting and a specific AR antibody (ab194196, Abcam, Cambridge, MA 02139) with concentration of 1:20,000. GAPDH was used as a loading control.
(§2) Bands were quantified with ImageJ software. The relative numbers of each band obtained from normalization with its corresponding GAPDH level were compared with Prism 8 software. The DC50 values were produced from Prism 8, and the DC90 values were calculated with an equation=Bottom + (Top-Bottom)/(1+10^((LogEC50-X)*HillSlope) based on DC50 and Hillslope values.
(§3) The amount of AR protein degradation in VCap and MDA-MB-453 cells caused by representative Compounds of the Disclosure at the concentrations indicated is presented in Table 4, FIG. 1, and FIG. 2.

The target in assay [2] is T1, AR protein (Homo sapiens, UniProt P10275).
T1 construct: endogenous in cells; host or cells: VCaP
T1 sequence (P10275 1-920): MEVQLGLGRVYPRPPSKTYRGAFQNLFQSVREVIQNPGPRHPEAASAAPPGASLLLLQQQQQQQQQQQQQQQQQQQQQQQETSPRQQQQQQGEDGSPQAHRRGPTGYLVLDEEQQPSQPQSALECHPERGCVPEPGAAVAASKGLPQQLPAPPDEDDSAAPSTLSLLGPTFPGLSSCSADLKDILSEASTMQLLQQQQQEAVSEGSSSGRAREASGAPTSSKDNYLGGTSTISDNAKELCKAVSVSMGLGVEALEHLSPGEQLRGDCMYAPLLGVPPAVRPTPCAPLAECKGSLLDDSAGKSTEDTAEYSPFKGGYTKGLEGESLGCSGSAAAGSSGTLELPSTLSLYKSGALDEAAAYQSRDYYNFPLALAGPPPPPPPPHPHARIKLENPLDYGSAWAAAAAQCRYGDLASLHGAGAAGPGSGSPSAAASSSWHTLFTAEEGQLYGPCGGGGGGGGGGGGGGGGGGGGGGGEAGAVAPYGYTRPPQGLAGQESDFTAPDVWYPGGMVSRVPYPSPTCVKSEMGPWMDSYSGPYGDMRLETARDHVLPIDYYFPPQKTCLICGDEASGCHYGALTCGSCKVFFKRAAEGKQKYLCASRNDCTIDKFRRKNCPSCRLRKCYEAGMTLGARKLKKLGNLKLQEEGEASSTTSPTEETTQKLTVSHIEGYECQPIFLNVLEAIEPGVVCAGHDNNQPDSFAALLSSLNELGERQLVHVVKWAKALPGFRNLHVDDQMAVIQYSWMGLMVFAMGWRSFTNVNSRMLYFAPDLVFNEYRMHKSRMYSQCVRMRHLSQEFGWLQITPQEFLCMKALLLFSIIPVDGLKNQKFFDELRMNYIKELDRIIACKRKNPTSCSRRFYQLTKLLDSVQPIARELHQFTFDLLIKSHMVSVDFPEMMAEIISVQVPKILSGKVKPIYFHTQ
Kind of assay: AR protein degradation in VCaP cells, Western blotting. The assay is classed as cell-based. Conditions: 24 hr treatment. On the procedure:
as §1, §2, §3
On the technique in general: Immunoblotting shows a protein as a band on a membrane.

With `N#Cc1ccc(O[C@H]2CC[C@H](N3Cc4cc(N5CCN(CC(=O)N6Cc7cc8c(cc7C6)C(=O)N(C6CCC(=O)NC6=O)C8=O)CC5)ccc4C3=O)CC2)cc1Cl` (stereo partly shown) [compound 4], in assay [1], the “AR protein degradation MDA-MB-453 10 nM” value is reported as “B (>50% degradation but <90% (24 hr treatment))” and the “AR protein degradation MDA-MB-453 100 nM” value is on record as “A (>90% degradation (24 hr treatment))”.
For `CC1(C)[C@H](Oc2ccc(C#N)c(Cl)c2)C(C)(C)[C@H]1N1Cc2cc(N3CCN(CC(=O)N4Cc5cc6c(cc5C4)C(=O)N(C4CCC(=O)NC4=O)C6=O)CC3)ccc2C1=O` (stereo partly shown) [compound 2], in assay [1], the “AR protein degradation MDA-MB-453 10 nM” value is listed as “D” and the “AR protein degradation MDA-MB-453 100 nM” value is “C (>10% degradation but <50% (24 hr treatment))”.
For `N#Cc1ccc(O[C@H]2CC[C@H](N3Cc4cc(N5CCN(CC(=O)N6CCc7cc8c(cc7C6)C(=O)N(C6CCC(=O)NC6=O)C8=O)CC5)ccc4C3=O)CC2)cc1Cl` (stereo partly shown) [compound 3], in assay [1], the “AR protein degradation MDA-MB-453 10 nM” value is on record as “D” and the “AR protein degradation MDA-MB-453 100 nM” value was “C (>10% degradation but <50% (24 hr treatment))”.
On to `CC1(C)[C@H](Oc2ccc(C#N)c(Cl)c2)C(C)(C)[C@H]1N1Cc2cc(N3CCN(CC(=O)N4CCc5cc6c(cc5C4)C(=O)N(C4CCC(=O)NC4=O)C6=O)CC3)ccc2C1=O` (stereo partly shown) [compound 1], for which, in assay [1], the “AR protein degradation MDA-MB-453 10 nM” value is “D” and the “AR protein degradation MDA-MB-453 100 nM” value is given as “C (>10% degradation but <50% (24 hr treatment))”.
Take `CC1(C)C(Nc2ccc(C(=O)N3CCC(N4Cc5cc6c(cc5C4)C(=O)N(C4CCC(=O)NC4=O)C6=O)CC3)cc2)C(C)(C)C1Oc1ccc(C#N)c(Cl)c1` (stereo not shown) [compound 176]: the percent AR protein degradation at 0.01 µM in assay [2] (10 nM) is 10 to 50%. In assay [2] (100 nM), this compound came in with a percent AR protein degradation at 0.1 µM above 90%.
